Common to all, as to assay: Cytotoxicity in vitro in the presence and absence of elastase (MTT assay)
Assay type in all cases: cell-based

In assay [1] the test system is 786-O. The following applies: 786-O cells, 72 h incubation. The method, then:
(§1) Cultivation of cells was performed according to standard procedures with the media recommended by the provider. The cells, in a total volume of 100 μL, were seeded in a 96-well plate with a white bottom (#3610). After a 24 h incubation period at 37° C. and 5% CO2, the medium was exchanged by adding 90 μL fresh medium. The treatment started by adding the test compound in 10 μL of culture medium to the cells in triplicates. Concentrations ranging from 10^−5 M to 10^−13 M were chosen. Two identically treated sets of samples were prepared. One set was treated with the test compound alone, whereas to the second set the compound and 10 nM elastase (NE) was added followed by a 72 h incubation period at 37° C. and 5% CO2. The proliferation was detected using the MTT assay (ATCC). At the end of the incubation period the MTT reagent was added to all samples for 4h. Lysis of the cells followed by addition of the detergent was done overnight. The formed dye was detected at 570 nm. The proliferation of untreated but otherwise identically handled cells was defined as the 100% value. The dose response curves allowed the determination of the respective IC50 values. […]

For assay [2], the system named is HT29. The following applies: HT29 cells, 72 h incubation. The method, then:
as §1

Assay [3] relates to NCI-H292. The following applies: NCI-H292 cells, 72 h incubation. The method, then:
as §1

Assay [4] has as its system SUM149PT. The settings on record: SUM149PT cells, 72 h incubation. On the procedure: as §1
Where [5] appears, read: compound alone, read-out: IC50 without neutrophil elastase.
[6] abbreviates: with 10 nM elastase (NE), read-out: IC50 with neutrophil elastase.

This passage reports IC50 results from patent US20260183405A1, “SMALL MOLECULE-DRUG-CONJUGATES CLEAVABLE IN A TUMOR MICROENVIRONMENT” (priority 2022, published 2026).

Where two headings read alike, the source gives them in different places. Starred links: 1 amine or outer side, 2 acyl side, 3 side chain; linkers in the order of their positions; H or OH if unused. Non-standard residues stand in square brackets, D forms with d. Residues, ends and D or L forms follow the SMILES beside them. Groups on a side chain read outwards from the residue. *: point of attachment. Camptothecin(7-Et) = CCc1c2c(nc3ccccc13)-c1cc3c(c(=O)n1C2)COC(=O)[C@@]3(CC)O*; Deacetylacetazolamide = NS(=O)(=O)c1nnc(N*)s1; Suc = O=C(CCC(=O)[*:2])[*:1]; PEG3 = NCCOCCOCCOCCC(=O)O

Turning to `CC[C@@]1(OC(=O)[C@@H](NC(=O)[C@@H]2CCCN2C(=O)[C@H](CC(=O)O)NC(=O)CCOCCOCCOCCNC(=O)CCC(=O)Nc2nnc(S(N)(=O)=O)s2)C(C)C)C(=O)OCc2c1cc1n(c2=O)Cc2c-1nc1cc(F)c(C)c3c1c2[C@@H](N)CC3` [Compound 12, sodium (1S,9S)-1-amino-9-ethyl-5-fluoro-4-methyl-10,13-dioxo-2,3,9,10,13,15-hexahydro-1H,12H-benzo[de]pyrano[3′,4′:6,7]indolizino[1,2-b]quinolin-9-yl 1-{(2S)-2-(carboxylatomethyl)-4,17,20-trioxo-20-[(5-sulfamoyl-1,3,4-thiadiazol-2-yl)amino]-7,10,13-trioxa-3,16-diazaicosanan-1-oyl}-L-prolyl-L-valinate], the IC50 is 100 to 999 nM in assay [1] (setting [5]); 1 to 9.9 nM in assay [1] (setting [6]); over 1000 nM in assay [2] (setting [5]); 10 to 99 nM in assay [2] (setting [6]); 100 to 999 nM in assay [3] (setting [5]); 1 to 9.9 nM in assay [3] (setting [6]). Moreover, the figures for the concentration for half-maximal inhibition (IC50) in assay [4] (setting [5]) and in assay [4] (setting [6]) were 100 to 999 nM and 1 to 9.9 nM, respectively.

As for `CCc1c2c(nc3ccccc13)-c1cc3c(c(=O)n1C2)COC(=O)[C@@]3(CC)OC(=O)[C@@H](NC(=O)[C@@H]1CCCN1C(=O)[C@H](CC(=O)O)NC(=O)CCOCCOCCOCCNC(=O)CCC(=O)Nc1nnc(S(N)(=O)=O)s1)C(C)C` [Compound 4, sodium (4S)-4,11-diethyl-3,14-dioxo-3,4,12,14-tetrahydro-1H-pyrano[3′,4′:6,7]indolizino[1,2-b]quinolin-4-yl 1-{(2S)-2-(carboxylatomethyl)-4,17,20-trioxo-20-[(5-sulfamoyl-1,3,4-thiadiazol-2-yl)amino]-7,10,13-trioxa-3,16-diazaicosanan-1-oyl}-L-prolyl-L-valinate], the IC50 was 100 to 999 nM in assay [1] (setting [5]); 1 to 9.9 nM in assay [1] (setting [6]); over 1000 nM in assay [2] (setting [5]); 10 to 99 nM in assay [2] (setting [6]); 100 to 999 nM in assay [3] (setting [5]); 1 to 9.9 nM in assay [3] (setting [6]). Moreover, the results for the half-inhibitory concentration (IC50) in assay [4] (setting [5]) and in assay [4] (setting [6]) were 100 to 999 nM and 1 to 9.9 nM, respectively.

`CCCNC(=O)Nc1cccc(S(=O)(=O)Nc2cccc([C@@H](CC(=O)O)NC(=O)Nc3ccc(NC(=O)NCCOCCOCCOCCC(=O)N[C@@H](CC(=O)O)C(=O)N4CCC[C@H]4C(=O)N[C@H](C(=O)OC(C)(C)CCNC(=O)[C@H](Cc4ccccc4)NC(=O)[C@H](C)[C@@H](OC)[C@@H]4CCCN4C(=O)C[C@@H](OC)[C@H]([C@@H](C)CC)N(C)C(=O)[C@@H](NC(=O)[C@H](C(C)C)N(C)C)C(C)C)C(C)C)cc3)c2)c1` [Compound 32]: the half-inhibitory concentration (IC50) in assay [1] (setting [5]) lay within 100 to 999 nM; in assay [1] (setting [6]), 10 to 99 nM; in assay [2] (setting [5]), 10 to 99 nM; in assay [2] (setting [6]) it was 1 to 9.9 nM; in assay [3] (setting [5]), 10 to 99 nM; in assay [3] (setting [6]) it was 1 to 9.9 nM. Also, the IC50 was in the range of 10 to 99 nM in assay [4] (setting [5]) and 1 to 9.9 nM in assay [4] (setting [6]).

For the compound `CCCNC(=O)Nc1cccc(S(=O)(=O)Nc2cccc([C@@H](CC(=O)O)NC(=O)Nc3ccc(NC(=O)NCCOCCOCCOCCC(=O)N[C@@H](CC(=O)O)C(=O)N4CCC[C@H]4C(=O)N[C@H](C(=O)NCCC(C)(C)C(=O)OCCCNC(=O)[C@H](Cc4ccccc4)NC(=O)[C@H](C)[C@@H](OC)[C@@H]4CCCN4C(=O)C[C@@H](OC)[C@H]([C@@H](C)CC)N(C)C(=O)[C@@H](NC(=O)[C@H](C(C)C)N(C)C)C(C)C)C(C)C)cc3)c2)c1` [Compound 31], the half-maximal inhibitory concentration (IC50) is 100 to 999 nM in assay [1] (setting [5]); 10 to 99 nM in assay [1] (setting [6]); 10 to 99 nM in assay [2] (setting [5]); 0.1 to 1 nM in assay [2] (setting [6]); 10 to 99 nM in assay [3] (setting [5]); 0.1 to 1 nM in assay [3] (setting [6]). In addition, the half-inhibitory concentration (IC50) lay in the range of 10 to 99 nM in assay [4] (setting [5]) and 0.1 to 1 nM in assay [4] (setting [6]).

In the case of `CCCNC(=O)Nc1cccc(S(=O)(=O)Nc2cccc([C@@H](CC(=O)O)NC(=O)Nc3ccc(NC(=O)NCCOCCOCCOCCC(=O)N[C@@H](CC(N)=O)C(=O)N4CCC[C@H]4C(=O)N[C@H](C(=O)NCCCN(C(=O)CO)[C@@H](c4cc(-c5cc(F)ccc5F)cn4Cc4ccccc4)C(C)(C)C)C(C)C)cc3)c2)c1` [Compound 16, N^2-(14-{4-[({(1R)-2-carboxy-1-[3-({3-[(propylcarbamoyl)amino]benzene-1-sulfonyl}amino)phenyl]ethyl}carbamoyl)amino]anilino}-14-oxo-4,7,10-trioxa-13-azatetradecanan-1-oyl}-L-asparaginyl-L-prolyl-N-{3-[{(1R)-1-[1-benzyl-4-(2,5-difluorophenyl)-1H-pyrrol-2-yl]-2,2-dimethylpropyl}(hydroxyacetyl)amino]propyl}-L-valinamide], the concentration for half-maximal inhibition (IC50) in assay [1] (setting [5]) is over 1000 nM; in assay [1] (setting [6]) it was 1 to 9.9 nM; in assay [2] (setting [5]), over 1000 nM; in assay [2] (setting [6]) it was 1 to 9.9 nM; in assay [3] (setting [5]) it was 100 to 999 nM; in assay [3] (setting [6]), 1 to 9.9 nM. Moreover, the IC50 lay in the range of 100 to 999 nM in assay [4] (setting [5]) and 0.1 to 1 nM in assay [4] (setting [6]).

For `CC[C@@]1(OC(=O)[C@@H](NC(=O)[C@@H]2CCCN2C(=O)[C@H](CC(=O)O)NC(=O)CCOCCOCCOCCNC(=O)NCCCC[C@H](NC(=O)N[C@@H](CCC(=O)O)C(=O)O)C(=O)O)C(C)C)C(=O)OCc2c1cc1n(c2=O)Cc2c-1nc1cc(F)c(C)c3c1c2[C@@H](N)CC3` [Compound 11, tetrasodium (1S,9S)-1-amino-9-ethyl-5-fluoro-4-methyl-10,13-dioxo-2,3,9,10,13,15-hexahydro-1H,12H-benzo[de]pyrano[3′,4′:6,7]indolizino[1,2-b]quinolin-9-yl 1-[(2S,23S,27S)-23,27,29-tricarboxylato-2-(carboxylatomethyl)-4,17,25-trioxo-7,10,13-trioxa-3,16,18,24,26-pentaazanonacosanan-1-oyl]-L-prolyl-L-valinate], the IC50 in assay [1] (setting [5]) is 100 to 999 nM; in assay [1] (setting [6]), 1 to 9.9 nM; in assay [2] (setting [5]) it was over 1000 nM; in assay [2] (setting [6]), 10 to 99 nM; in assay [3] (setting [5]) it was 100 to 999 nM; in assay [3] (setting [6]) it was 1 to 9.9 nM. Moreover, the 50% inhibitory concentration (IC50) in assay [4] (setting [5]) lay in the range of 100 to 999 nM; in assay [4] (setting [6]), 1 to 9.9 nM.

Turning to `CCc1c2c(nc3ccccc13)-c1cc3c(c(=O)n1C2)COC(=O)[C@@]3(CC)OC(=O)[C@@H](NC(=O)[C@@H]1CCCN1C(=O)[C@H](CC(=O)O)NC(=O)CCOCCOCCOCCNC(=O)[C@H](CCCCNC(=O)CCOCCOCCOCCNC(=O)CCC(=O)Nc1nnc(S(N)(=O)=O)s1)NC(=O)CCOCCOCCOCCNC(=O)CCC(=O)Nc1nnc(S(N)(=O)=O)s1)C(C)C` [Compound 8, sodium (4S)-4,11-diethyl-3,14-dioxo-3,4,12,14-tetrahydro-1H-pyrano[3′,4′:6,7]indolizino[1,2-b]quinolin-4-yl 1-[(2S)-15-[(N2,N6-bis{14,17-dioxo-17-[(5-sulfamoyl-1,3,4-thiadiazol-2-yl)amino]-4,7,10-trioxa-13-azaheptadecanan-1-oyl}-L-lysyl)amino]-2-(carboxylatomethyl)-4-oxo-7,10,13-trioxa-3-azapentadecanan-1-oyl]-L-prolyl-L-valinate] ({Deacetylacetazolamide-Suc-PEG3}-K([PEG3-Suc-Deacetylacetazolamide])[PEG3]DPV-{Camptothecin(7-Et)}), the IC50 in assay [1] (setting [5]) was over 1000 nM; in assay [1] (setting [6]), 10 to 99 nM; in assay [2] (setting [5]), over 1000 nM; in assay [2] (setting [6]), 10 to 99 nM; in assay [3] (setting [5]), over 1000 nM; in assay [3] (setting [6]), 10 to 99 nM. In addition, the IC50 in assay [4] (setting [5]) was over 1000 nM; in assay [4] (setting [6]), 10 to 99 nM.

With “N2-(14-{4-[({(1R)-2-carboxy-1-[3-({3-[(propylcarbamoyl)amino]benzene-1-sulfonyl}amino)phenyl]ethyl}carbamoyl)amino]anilino}-14-oxo-4,7,10-trioxa-13-azatetradecanan-1-oyl}-L-asparaginyl-L-prolyl-N-{3-[{(1R)-1-[1-benzyl-4-(2,5-difluorophenyl)-1H-pyrrol-2-yl]-2,2-dimethylpropyl}(hydroxyacetyl)amino]propyl}-L-alaninamide [Compound 15]”, the half-inhibitory concentration (IC50) in assay [1] (setting [5]) was over 1000 nM; in assay [1] (setting [6]), 10 to 99 nM; in assay [2] (setting [5]) it was 100 to 999 nM; in assay [2] (setting [6]) it was 1 to 9.9 nM; in assay [3] (setting [5]), 100 to 999 nM; in assay [3] (setting [6]), 10 to 99 nM. The IC50 in assay [4] (setting [5]) is 10 to 99 nM; in assay [4] (setting [6]) it was 1 to 9.9 nM.
